In patent US20250114436A1, “DYNAMIC-COVALENT HYDROGELS WITH GLUCOSE-SPECIFIC AND GLUCOSE-RESPONSIVE DIBORONATE CROSSLINKING” (UNIVERSITY OF NOTRE DAME DU LAC, priority 2022, published 2025):

Experiments:
[1] = Isothermal titration calorimetry (ITC), glucose binding; conditions: for Keq for binding to glucose: 298 K, pH 7.4 PBS
Method: (§1) The binding affinities (Keq) between different small molecule PBAs and model analytes (FIG. 2) were measured through isothermal titration calorimetry (ITC). All titration experiments were performed at 298 K on a PEAQ-ITC calorimeter (MicroCal, Inc.) in degassed pH 7.4 PBS buffer, using a 38 μL syringe and 200 μL cells and consisting of 19 injections. The measurements were performed by titrating glucose, fructose, sodium lactate, or Diolsm from the syringe into a solution of small molecule variants of DiPBAsm, PyPBAsm, or FPBAsm loaded in the cell. In all titration experiments, the cell concentration was 1 mM, while the analyte concentrations in the syringe were varied according to experimental optimization. All raw data were corrected by subtraction of a dilution measurement of the titrated analytes into buffer and were then analyzed and graphed using the integrated public-domain software packages of NIPIC, SEDPHAT, and GUSSI according to a published protocol. See Brautigam et al., Nat. Protoc. 11(5): 882-894 (2016).
(§2) To first quantify the affinities of binding for these different PBA motifs to glucose, related analytes, and model diols, a set of small molecules (FIG. 2) were synthesized for isothermal titration calorimetry (ITC) studies. […] By comparison, the commonly used FPBA motif had Keq for glucose binding of only 8.6 M^−1. […] Accordingly, concerns over low-affinity glucose-binding and poor glucose selectivity of traditional PBAs are supported by these ITC data, with both issues seemingly overcome using DiPBA chemistry. […] Finally, to explore the likely outcomes of using each of these PBA motifs in the context of dynamic-covalent networks a model diol (GdL-Diol) was prepared from reaction of glucono-δ-lactone (GdL) with benzylamine. The Keq of binding for each PBA motif to this model diol were nearly identical (˜5×10^3 M^−1); this finding confirms similar 1:1 binding stoichiometry between all three PBA chemistries studied here and the GdL-derived diol chemistry commonly used in preparing dynamic-covalent PBA-diol networks.

[2] = Isothermal titration calorimetry (ITC), fructose binding
Method: as §1, §2

[3] = Isothermal titration calorimetry (ITC), lactate binding
Method: as §1, §2

[4] = Acid-base titration for pKa determination; format: physicochemical; conditions: small molecule
Method: A 0.01 M stock solution of the PBA of interest was prepared by dissolving 0.2 mmol of each PBA in 20 mL DI water. The solution was then titrated with 0.005 M NaOH solution under constant stirring with pH monitoring.
Previously reported diboronate glucose sensors include architectures of two phenylboronic acids attached to an aryl core via charged ammonium linkers. In a variation on this approach, the DiPBA motif explored here has introduced adjacent charge via pyridine-based phenylboronic acid structures (FIG. 1B). Besides conserving adjacent positive charge, the topology of this novel design was also intended to afford a more rigid pocket for simultaneous glucose binding by both boronates (FIG. 2B). Details for the synthesis and molecular characterization of this novel DiPBA group, along with all other synthetic small molecules and macromers, are reported in the Online Supporting Information. As a control for this glucose-binding motif, a single pyridine-PBA (PyPBA) was also synthesized. DiPBA and PyPBA motifs were compared in this work to a fluorine-substituted PBA motif (FPBA) that has been routinely reported in glucose-responsive materials and therapeutic constructs.

[5] = test system: streptozotocin (STZ)-induced diabetic mice; assay: Blood glucose control in vivo with glucose tolerance tests; set-up: species or system male C57BL6/J mice; conditions: free insulin 4 IU/kg
Method: To evaluate the performance hydrogels for blood glucose control, male C57BL6/J mice (8 weeks old, ˜25 g/mouse; Jackson Laboratory) were induced to be insulin deficient using streptozotocin (STZ). Mice were fasted for 4 h, following which a single intraperitoneal (i.p.) injection of STZ at a dose of 150 mg/kg was administered. Following an additional 30 min fast, food was returned. Seven days following STZ treatment, insulin-deficient diabetes was verified using hand-held blood glucose meters (CVS brand) with unfasted blood glucose (BG) levels ensured to be above 600 mg/dL for study inclusion. Mice were then fasted for 12 h, and those with BG >550 mg/dL were randomly divided into 4 groups (n=5-6/group). […] BG level were continuously monitored for 3 h after treatment. […] BG were subsequently monitored for 3 h. […] Areas under the curve (AUC) were calculated using the trapezoidal rule and statistical analyses were performed to compare DiPBA and FPBA treatment groups using GraphPad Prism v9.0, with significance obtained using a Student's t-test. […] Glucose levels were monitored over time using handheld glucometers (FIG. 11B). […]

Compound | Keq for binding to glucose [1] [M⁻¹] | fructose binding compared to FPBA / traditional PBA [2] | lactate binding compared to FPBA / traditional PBA [3] | pKa ([4]; DI water titrated with 0.005 M NaOH) | blood glucose response to first i.p. glucose tolerance test ([5]; GTT 1.25 g/kg glucose at 180 min) | time to blood glucose nadir ([5]; s.c.) [h] | glucose affinity relative to a traditional PBA motif (times higher) [1] [times] | Keq for glucose relative to that for fructose (times higher) ([2]; pH 7.4 PBS) [times] | Keq for glucose relative to that for lactate (times higher) ([3]; pH 7.4 PBS) [times] | pKa1 [4] | pKa2 [4]
COC(=O)c1cccc(C[n+]2cccc(B(O)O)c2)c1 [PyPBA] | 164.7 | reduced | reduced | 4.41 |  |  |  |  |  |  | 
insulin: Recombinant Human Insulin, free insulin control, 4 IU/kg s.c. |  |  |  |  | dramatically increased blood glucose without any subsequent correction | ~1 |  |  |  |  | 
COC(=O)c1cc(C[n+]2cccc(B(O)O)c2)ccc1C[n+]1cccc(B(O)O)c1 [DiPBA] | 1295 | reduced | reduced |  |  |  | 150 | 1.7 | 29 | 4.53 | 7.45
